Results on one compound are retold here after US10751285B1, “Synthesis of C resorcinarene based novel amphiphilic supramolecular macrocycle as nano-scale drug loading system” (priority 2019, dated 2020).

The nature of the data set: Critical micelle concentration (CMC) by UV-visible spectrophotometer. It is filed as physicochemical. As to conditions: in methanol; absorbance at 283 nm; 0.001-0.09 mM range. As to the method: CMC of the synthesized resorcinarene based amphiphilic supramolecular macrocycle was investigated in methanol using UV-visible spectrophotometer. Amphiphile methanolic solutions in 0.001-0.09 mM range were read on UV-visible spectrophotometer, giving characteristic absorbance at 283 nm.

In the case of `CCCCCCCCCCCCCCCCOc1ccc(C2c3cc(c(O)cc3O)C(c3ccc(OCCCCCCCCCCCCCCCC)cc3)c3cc(c(O)cc3O)C(c3ccc(OCCCCCCCCCCCCCCCC)cc3)c3cc(c(O)cc3O)C(c3ccc(OCCCCCCCCCCCCCCCC)cc3)c3cc2c(O)cc3O)cc1` (stereo not shown) [ASRM], the CMC came out at 0.04 mM.
